Reference: US10344026B2, “Compositions and methods of targeting mutant K-ras” (NANTBIO, INC., priority 2017, dated 2019)
Read-outs that look alike come from different tables or passages of the source.

Experiments:
Assay type in all cases: cell-based
[1] = test system: Panc1-G12D; assay: Viability assay (CellTiterBlue, 72 hr) Panc1; conditions: Homo sapiens, PANC-1, GI50, CellTiterBlue, read-out: 72 hr Cell Viability Panc1 (G12D)
Description: (§1) Viability assays were performed on exemplary compounds and Table 2 below lists exemplary results for selected compounds tested on K-Ras wild type cell lines (Ishikawa, U87-MG, HCC827, and A375) and various K-Ras mutant cell lines (Panc1-G12D; Panc10.05-G12D; HCT116-G31D). Results are expressed in μM and corresponding structures are shown in FIGS. 2A-2G and Examples 1-152, above.
(§2) Cells are counted and seeded at 1000 cells/36 ul medium/well into 384-well microplates. Cells are returned to 37° C. CO2 incubator for 18 hr. Drug is made as 200× in DMSO and diluted into medium to 10×. To each well is added 4 ul 10× drug, and plates are returned to the incubator. Final assay DMSO concentration is 0.5%. After 72 hr, 8 ul CellTiterBlue (Promega) is added to each well. After 3 hr, fluorescence (Ex550/Em590) is determined on the Victor Plate Reader (Perkin Elmer). Assay range is determined by DMSO control (100% viability) and 100 uM tamoxifen (0% viability). GI50 values are calculated using Graphpad Prism.

[2] = test system: Panc10.05-G12D; assay: Viability assay (CellTiterBlue, 72 hr) Panc10.05; conditions: Homo sapiens, Panc1005, GI50, CellTiterBlue, read-out: 72 hr Cell Viability Panc10.05 (G12D)
Description: as §1, §2

[3] = test system: U87-MG (K-Ras wild type cell line); assay: Viability assay (CellTiterBlue, 72 hr) U87-MG; conditions: Homo sapiens, U-87 MG, GI50, CellTiterBlue
Description: as §1, §2

[4] = test system: HCC827 (K-Ras wild type cell line); assay: Viability assay (CellTiterBlue, 72 hr) HCC827; conditions: Homo sapiens, GI50, CellTiterBlue
Description: as §1, §2

[5] = test system: HCT116-G31D; assay: Viability assay (CellTiterBlue, 72 hr) HCT116; conditions: Homo sapiens, HCT-116, GI50, CellTiterBlue, read-out: 72 hr Cell Viability HCT116 (G13D)
Description: as §1, §2

[6] = test system: Ishikawa (K-Ras wild type cell line); assay: Viability assay (CellTiterBlue, 72 hr) Ishikawa; conditions: Homo sapiens, GI50, CellTiterBlue
Description: as §1, §2

[7] = molecular target: T1, K-Ras G12D (Homo sapiens, UniProt P01116, G12D); assay: G-LISA Ras activation, 293H cells transfected with G12D mutant; conditions: compound 1 hour
T1 construct: expressed in transfected cells; host or cells: 293H cells
Description: 293H cells were seeded in 6-wells at 0.6×10^6 cells per well and transfected next day with 5 μg of Ras wild-type, or G12C, G12D or G12V mutant DNA plasmid vector using transfection reagent Lipofectamine 3000. Next day cells were treated with 3.125-25 μM of Ras compounds for 1 hour. Wild-type transfected cells were subsequently treated with 100 ng/ml EGF for 2 minutes. Cells were washed once in ice-cold PBS, lysed in complete lysis buffer on ice, and processed by G-LISA according to Cytoskeleton protocol.

[8] = Ishikawa cells (K-Ras wild-type)

T1 sequence (P01116 whole entry G12D): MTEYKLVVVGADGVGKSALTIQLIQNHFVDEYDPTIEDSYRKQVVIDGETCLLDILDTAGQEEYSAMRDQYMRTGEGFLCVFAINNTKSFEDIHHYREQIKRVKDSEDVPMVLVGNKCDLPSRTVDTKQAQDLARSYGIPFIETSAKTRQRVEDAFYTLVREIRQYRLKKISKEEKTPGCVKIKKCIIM

Row | Structure (SMILES) | IC50 ([1]; Panc1 K-Ras G12D) | IC50 ([2]; Panc10.05 K-Ras G12D) | IC50 ([3]; U87-MG K-Ras wild-type) | IC50 ([4]; HCC827 K-Ras wild-type) | IC50 ([5]; HCT116 K-Ras G13D) | IC50 ([1]; Panc1 cells (K-Ras G12D)) | IC50 ([2]; Panc10.05 cells (K-Ras G12D)) | IC50 [6, 8] | IC50 [7] | IC50 ([3]; U87-MG cells (K-Ras wild-type)) | IC50 ([4]; HCC827 cells (K-Ras wild-type)) | IC50 ([5]; HCT116 cells (K-Ras G13D)) | IC50 ([6]; Ishikawa K-Ras wild-type)
1 | Cc1nc(C2CCCCC2)oc1C(=O)Nc1nc(-c2ccc3c(c2)CCC(=O)N3)cs1 [Compound 11, 2-cyclohexyl-4-methyl-N-(4-(2-oxo-1,2,3,4-tetrahydroquinolin-6-yl)thiazol-2-yl)oxazole-5-carboxamide] | > 25 µM | 16 µM | > 25 µM | 21 µM | 16 µM | – | – | – | – | – | – | – | –
2 | Cc1nc(C)c(C(=O)Nc2nc(-c3ccc4c(c3)CCC(=O)N4CC(O)CO)cs2)o1 (stereo not drawn) [Compound 89, N-(4-(1-(2,3-dihydroxypropyl)-2-oxo-1,2,3,4-tetrahydroquinolin-6-yl)thiazol-2-yl)-2,4-dimethyloxazole-5-carboxamide] | > 25 µM | 12 µM | 13 µM | 12 µM | 11 µM | – | – | – | – | – | – | – | –
3 | O=C1CCc2cc(-c3csc(NC(=O)c4ccc(Cl)s4)n3)ccc2N1 [Compound 150, 5-chloro-N-(4-(2-oxo-1,2,3,4-tetrahydroquinolin-6-yl)thiazol-2-yl)thiophene-2-carboxamide] | – | – | – | – | – | 27 µM | 20 µM | 5 µM | > 25 µM | 8 µM | 20 µM | 27 µM | –
4 | Cc1nc(C)c(C(=O)Nc2nc(-c3ccc4c(c3)CCC(=O)N4CC3CCCNC3)cs2)o1 (stereo not drawn) [Compound 88] | > 25 µM | 16 µM | 19 µM | 15 µM | 17 µM | – | – | – | – | – | – | – | –
5 | Cc1nc(C)c(C(=O)Nc2nc(-c3ccc4c(c3)CCC(=O)N4Cc3ccc4c(c3)OCO4)cs2)o1 [Compound 74, N-(4-(1-(benzo[d][1,3]dioxol-5-ylmethyl)-2-oxo-1,2,3,4-tetrahydroquinolin-6-yl)thiazol-2-yl)-2,4-dimethyloxazole-5-carboxamide] | 11 µM | 2 µM | 6 µM | > 25 µM | > 25 µM | – | – | – | 22.4 µM | – | – | – | 16 µM
6 | Cc1nc(C)c(C(=O)Nc2nc(-c3ccc4c(c3)CCC(=O)N4Cc3cccc([N+](=O)[O-])c3)cs2)o1 [Compound 87, 2,4-dimethyl-N-(4-(1-(3-nitrobenzyl)-2-oxo-1,2,3,4-tetrahydroquinolin-6-yl)thiazol-2-yl)oxazole-5-carboxamide] | 17 µM | 17 µM | > 25 µM | > 25 µM | > 25 µM | – | – | – | – | – | – | – | –
7 | O=C1CCc2cc(-c3csc(NC(=O)c4cc(Br)cs4)n3)ccc2N1 [Compound 149, 4-bromo-N-(4-(2-oxo-1,2,3,4-tetrahydroquinolin-6-yl)thiazol-2-yl)thiophene-2-carboxamide] | – | – | – | – | – | > 25 µM | 22 µM | 7 µM | – | 11 µM | 22 µM | 28 µM | –
8 | Cc1cc(C)c(C(=O)Nc2nc(-c3ccc4c(c3)CCC(=O)N4)cs2)cn1 [Compound 18] | 5 µM | 3 µM | 11 µM | > 25 µM | 26 µM | – | – | – | – | – | – | – | 2 µM
9 | COc1cc(Cl)cc(CN2C(=O)CCc3cc(-c4csc(NC(=O)c5oc(C)nc5C)n4)ccc32)c1 [Compound 78] | > 25 µM | > 25 µM | > 25 µM | > 25 µM | > 25 µM | – | – | – | – | – | – | – | > 25 µM
10 | COc1cc(CN2C(=O)CCc3cc(-c4csc(NC(=O)c5oc(C)nc5C)n4)ccc32)cc(OC)c1 [Compound 77, N-(4-(1-(3,5-dimethoxybenzyl)-2-oxo-1,2,3,4-tetrahydroquinolin-6-yl)thiazol-2-yl)-2,4-dimethyloxazole-5-carboxamide] | > 25 µM | > 25 µM | > 25 µM | > 25 µM | > 25 µM | – | – | – | – | – | – | – | > 25 µM
11 | Cc1nc(-c2ccc3c(c2)OCC3)sc1C(=O)Nc1nc(-c2ccc3c(c2)CCC(=O)N3)cs1 [Compound 19, 2-(2,3-dihydrobenzofuran-6-yl)-4-methyl-N-(4-(2-oxo-1,2,3,4-tetrahydroquinolin-6-yl)thiazol-2-yl)thiazole-5-carboxamide] | 6 µM | 2 µM | 4 µM | 8 µM | 5 µM | – | – | – | – | – | – | – | 2 µM
12 | Cc1nc(C)c(C(=O)Nc2nc(-c3ccc4c(c3)CCC(=O)N4Cc3cccc4ccccc34)cs2)o1 [Compound 79, 2,4-dimethyl-N-(4-(1-(naphthalen-1-ylmethyl)-2-oxo-1,2,3,4-tetrahydroquinolin-6-yl)thiazol-2-yl)oxazole-5-carboxamide] | > 25 µM | > 25 µM | > 25 µM | > 25 µM | > 25 µM | – | – | – | – | – | – | – | > 25 µM
13 | Cn1nccc1-c1csc(C(=O)Nc2nc(-c3ccc4c(c3)CCC(=O)N4)cs2)c1 [Compound 151, 4-(1-methyl-1H-pyrazol-5-yl)-N-(4-(2-oxo-1,2,3,4-tetrahydroquinolin-6-yl)thiazol-2-yl)thiophene-2-carboxamide] | – | – | – | – | – | 4 µM | 1.4 µM | 1.3 µM | 23.5 µM | 5 µM | 8 µM | 2 µM | –
14 | Cc1nc(C)c(C(=O)Nc2nc(-c3ccc4c(c3)CCC(=O)N4Cc3ccc4ccccc4c3)cs2)o1 [Compound 80, 2,4-dimethyl-N-(4-(1-(naphthalen-2-ylmethyl)-2-oxo-1,2,3,4-tetrahydroquinolin-6-yl)thiazol-2-yl)oxazole-5-carboxamide] | > 25 µM | 9 µM | 4 µM | 7 µM | 9 µM | – | – | – | – | – | – | – | > 25 µM
15 | Cc1nc(C)c(C(=O)Nc2nc(-c3ccc4c(c3)CCC(=O)N4Cc3cccc4cnccc34)cs2)o1 [Compound 83, N-(4-(1-(isoquinolin-5-ylmethyl)-2-oxo-1,2,3,4-tetrahydroquinolin-6-yl)thiazol-2-yl)-2,4-dimethyloxazole-5-carboxamide] | 12 µM | 4 µM | 3 µM | 6 µM | 4 µM | – | – | – | > 25 µM | – | – | – | 2 µM
